From patent publication EP1366764A1, “Method of screening for calcium receptor-active molecules” (The Brigham & Women's Hospital, Inc., priority 1993, dated 1994)
Like-named read-outs stand apart in the source and are kept apart here. Each block holds one compound with its values, some of them ahead of it.

Legend:
[1] = Net positive charge of the molecule; format: physicochemical
rat osteoclasts = test: Measurement of [Ca2+]i in single rat osteoclasts (indo-1); format: cell-based; conditions: for EC50: Osteoclast
Ca^2+ receptor = biological target: T1, Ca^2+ receptor (Homo sapiens, UniProt P41180); test: Cl- current in Xenopus oocytes injected with human parathyroid cell mRNA; format: cell-based; conditions: oocytes injected with mRNA from human parathyroid cells
T1 construct: Oocytes were injected with poly(A)^+-enriched mRNA from human parathyroid tissue; expressed in transfected cells; host or cells: Xenopus laevis oocytes injected with poly(A)+ mRNA from human hyperplastic parathyroid glands (secondary HPT)
T1 sequence (P41180 20-1078): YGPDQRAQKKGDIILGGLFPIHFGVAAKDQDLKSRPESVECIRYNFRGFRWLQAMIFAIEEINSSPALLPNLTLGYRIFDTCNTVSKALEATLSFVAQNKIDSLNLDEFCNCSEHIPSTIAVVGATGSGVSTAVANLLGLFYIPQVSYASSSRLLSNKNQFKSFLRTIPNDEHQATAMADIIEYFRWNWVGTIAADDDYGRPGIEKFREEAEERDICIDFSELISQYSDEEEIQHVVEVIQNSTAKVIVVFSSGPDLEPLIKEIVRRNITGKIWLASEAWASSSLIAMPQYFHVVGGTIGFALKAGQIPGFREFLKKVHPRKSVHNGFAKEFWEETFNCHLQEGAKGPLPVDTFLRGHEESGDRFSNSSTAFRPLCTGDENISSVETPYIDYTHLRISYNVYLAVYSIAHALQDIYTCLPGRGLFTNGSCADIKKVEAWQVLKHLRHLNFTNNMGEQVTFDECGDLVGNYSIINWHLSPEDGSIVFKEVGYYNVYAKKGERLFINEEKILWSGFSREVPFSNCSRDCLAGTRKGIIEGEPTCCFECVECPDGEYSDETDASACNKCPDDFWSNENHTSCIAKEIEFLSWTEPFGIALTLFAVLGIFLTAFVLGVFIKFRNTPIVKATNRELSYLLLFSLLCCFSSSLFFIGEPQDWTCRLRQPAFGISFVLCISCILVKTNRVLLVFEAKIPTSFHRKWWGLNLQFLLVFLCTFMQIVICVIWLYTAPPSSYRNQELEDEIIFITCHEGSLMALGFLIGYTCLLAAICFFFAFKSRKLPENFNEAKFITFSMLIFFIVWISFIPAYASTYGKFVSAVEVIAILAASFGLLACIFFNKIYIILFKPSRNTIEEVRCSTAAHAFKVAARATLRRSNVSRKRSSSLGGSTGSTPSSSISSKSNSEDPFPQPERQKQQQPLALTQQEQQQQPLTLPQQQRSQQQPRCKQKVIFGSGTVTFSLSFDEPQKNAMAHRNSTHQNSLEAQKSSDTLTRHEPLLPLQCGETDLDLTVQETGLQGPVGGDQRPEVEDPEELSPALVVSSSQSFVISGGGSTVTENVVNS

rMTC 6-23 cells = test: Measurement of cytosolic Ca2+ in C-cells (fura-2); format: cell-based, rat; conditions: for EC50: read-out: EC50 (C-CELL)
human parathyroid cells = test: Measurement of [Ca2+]i (fura-2) in human parathyroid cells; format: cell-based
[2] = Hypocalcemic activity in vivo (serum or whole blood ionized Ca2+, PTH) in rats
[3] = Serum ionized Ca2+ in the 5/6 nephrectomized rat (model of secondary hyperparathyroidism); format: in vivo, rats; conditions: 10 mg/kg i.p.
Excerpt: An accepted and widely used animal model of secondary hyperparathyroidism arising from chronic renal failure is the 5/6 nephrectomized rat. Animals receiving such surgery become initially hypocalcemic and, to maintain serum Ca^2+ levels, there is a compensatory hyperplasia of the parathyroid glands and elevated levels of circulating PTH. Male Sprague-Dawley rats (250 g) received a 5/6 nephrectomy and were allowed to recover for 2 weeks. At this time they were normocalcemic (due to elevated levels of serum PTH).

[4] = Serum ionized Ca2+ in parathyroidectomized rats; format: in vivo
Excerpt: To determine the primary target tissue upon which NPS 467 acts to cause a hypocalcemic response, the para thyroid glands in rats were surgically removed.

[5] = rat osteoclasts, indo-1, "inactive" = no increase in cytosolic Ca2+ at 1 mM or 1-5 mM (footnote)
[6] = rMTC 6-23 cells, fura-2, "inactive" = no increase in cytosolic Ca2+ at 1 mM or 1-5 mM (footnote)

Net (+) Charge ([1]; at physiological pH (pH 7.3)): +3
Compound: [H]/N=C(/N)N[C@H]1[C@H](O)[C@@H](O)[C@H](O[C@@H]2O[C@@H](C)[C@](O)(C=O)[C@H]2O[C@@H]2O[C@@H](CO)[C@H](O)[C@@H](O)[C@@H]2NC)[C@@H](N/C(N)=N\[H])[C@@H]1O [streptomycin]

Net (+) Charge ([1]; at physiological pH (pH 7.3)): +3
Compound: NCCCCNCCCN [spermidine]
increase in [Ca^2+]i, % of that evoked by a maximal concentration of extracellular Ca^2+ (rat osteoclasts; 1 mM): about 10%

Net (+) Charge ([1]; at physiological pH (pH 7.3)): +5
Compound: gentamicin

Net (+) Charge ([1]; at physiological pH (pH 7.3)): +10
Compound: NCCCN(CCCN)CCCN(CCCN)CCCCN(CCCN)CCCN(CCCN)CCCN [NPS 381, N^1,N^1,N^5,N^10,N^14,N^14-hexakis-(3-aminopropyl) spermine]

Compound: NCCCNCCCCNCCCNCCCN(O)CCCNC(=O)Cc1c[nH]c2ccccc12 [NPS 017]
EC50 (OSTEOCLAST) (rat osteoclasts; [5]): inactive

Net (+) Charge ([1]; at physiological pH (pH 7.3)): +4
Compound: NCCNCCNCCN [Triethylenetramine (TETA), triethylenetetramine]

Compound: COc1ccc(CCN(C)CCCC(C#N)(c2ccc(OC)c(OC)c2)C(C)C)cc1OC (stereo not drawn) [verapamil]
increase in [Ca^2+]i (rat osteoclasts; 100 µM): caused no detectable increase in [Ca^2+]i

Compound: NC(=O)C[C@H](NC(=O)Cc1c[nH]c2cccc(O)c12)C(=O)NCCCCCNCCCNCCCNC(=O)[C@@H](N)CCCN=C(N)N [Argiotoxin-659]
Net (+) Charge ([1]; at physiological pH (pH 7.3)): +4

concentration causing the mobilization of intracellular Ca^2+ in oocytes (Ca^2+ receptor): 135 µM
Net (+) Charge ([1]; at physiological pH (pH 7.3)): +6
Compound: C1CNCCNCCNCCNCCNCCN1 [hexacyclen, 1,4,7,10,13,16-hexaaza-cyclooctadecane]

Compound: NCCCNCCCCNCCCNCCCN(O)CCCNC(=O)Cc1c[nH]c2cccc(O)c12 [NPS 015]
EC50 (C-CELL) (rMTC 6-23 cells; [6]): inactive
IC50 (rMTC 6-23 cells; read-out: IC50 for block of extracellular Ca^2+-induced increases in [Ca^2+]i, rMTC cells, block of the L-type voltage-sensitive Ca2+ channel): 3 µM

Net (+) Charge ([1]; at physiological pH (pH 7.3)): +1
Compound: CCC[C@@H]1C[C@@H](C(=O)N[C@@H]([C@H]2O[C@H](SC)[C@H](O)[C@@H](O)[C@H]2O)[C@@H](C)O)N(C)C1 [lincomycin]

Net (+) Charge ([1]; at physiological pH (pH 7.3)): +5
Compound: NCCNCCNCCNCCN [Tetraethylenepentamine (TEPA), Tetraethylenepentamine]

Net (+) Charge ([1]; at physiological pH (pH 7.3)): +5
Compound: NC[C@H]1O[C@H](O[C@H]2[C@H](O)[C@@H](O[C@H]3O[C@H](CO)[C@@H](O)[C@H](N)[C@H]3O)[C@H](N)C[C@@H]2N)[C@H](N)[C@@H](O)[C@@H]1O [bekanamycin]

Compound: N^1,N^1,N^5,N^14,N^14-tetrakis-(3-aminopropyl)spermine [NPS 382]
concentration causing the mobilization of intracellular Ca^2+ in oocytes (Ca^2+ receptor): 5000 µM
Net (+) Charge ([1]; pH 7.3): +8

Net (+) Charge ([1]; at physiological pH (pH 7.3)): +2
Compound: NCCCCCCCCCCCCN [1,12-diaminododecane (DADD), 1,12-diaminododecane]

Compound: NCCCNCCCCNCCCN [spermine]
increase in [Ca^2+]i (human parathyroid cells; 300 µM): only a small increase in [Ca^2+]i
effect on basal [Ca^2+]i (rMTC 6-23 cells; spermine 10 mM, neomycin B 5 mM): without effect
effect on the response to subsequent extracellular Ca^2+ (rat osteoclasts; neomycin 10 mM (25 mM extracellular Ca2+), spermine 20 mM, verapamil 100 µM): did depress the response to extracellular Ca^2+
increases in [Ca^2+]i in rat osteoclasts (rat osteoclasts; neomycin 10 mM, spermine 10 or 20 mM): Neither neomycin (10 mM) nor spermine (10 or 20 mM) caused increases
increase in [Ca^2+]i in osteoclasts (rat osteoclasts; neomycin B 1 mM, spermine 1 or 5 mM): failed to evoke any increase in [Ca^2+]i

EC50 (rat osteoclasts; [5]): > 100 µM
Compound: COc1cccc([C@@H](C)NCCCc2ccccc2)c1 (single isomer, unassigned) [NPS R-467]
decrease in serum ionized Ca^2+ from the control level ([2]; 10 mg/kg i.p., single dose, rats on normal calcium-replete diet, at maximum): 22%
time serum ionized Ca^2+ remained depressed ([2]; 10 mg/kg i.p., normal diet): up to 6 hours
time to maximal fall in serum ionized Ca^2+ ([2]; 10 mg/kg i.p., normal diet): ≤ 1 h
potency in lowering serum Ca^2+ in vivo, R- versus S-isomer ([2]; each compound at 5 mg/kg body weight): more potent than the S-isomer
serum levels of ionized Ca^2+ after oral dosing ([2]; single oral dose in corn oil by gavage, three hours, fasted rats): dose-dependent reduction
time to fall in serum ionized Ca^2+ [3]: ≤ 2 h
serum ionized Ca^2+ levels, % of controls ([3]; 5/6 nephrectomized rats, 2 weeks after surgery): 83 % of controls
change in serum ionized Ca^2+ levels ([4]; 10 mg/kg i.p., single dose, over 6 hours): did not cause any change

Compound: COc1cccc(C(C)NCCCc2ccccc2)c1 (racemic) [NPS 467]
return of hypocalcemic effect toward control ([2]; 25 mg/kg (Fig. 40)): returned toward control levels after 24 hours
time of maximal hypocalcemic effect ([2]; 25 mg/kg (Fig. 40)): maximal within three hours
serum albumin or phosphate levels ([2]; any of the doses examined): no change
circulating levels of PTH ([2]; doses effective in lowering blood Ca2+, preliminary studies): dose-dependent reduction
serum or whole blood Ca^2+ ([2]; i.p., low calcium diet, three hours after administration): dose-dependent reduction

Compound: COc1cccc([C@@H](C)NCCCc2ccccc2Cl)c1 [NPS R-568]
EC50 (human parathyroid cells; read-out: EC50 for the mobilization of intracellular Ca^2+ / increase in [Ca^2+]i, human parathyroid cells (adenoma)): 3 µM
EC50 (rMTC 6-23 cells; Rattus norvegicus, rMTC 6-23 cells, fura-2, "inactive" = no increase in cytosolic Ca2+ at 1 mM or 1-5 mM (footnote)): > 300 µM
EC50 (rat osteoclasts; [5]): 200 µM
ED50 ([2]; Rattus norvegicus, read-out: ED50 for decrease in the levels of serum Ca^2+, oral administration to rats): 7 mg/kg
hypocalcemic response in parathyroidectomized rats ([4]; oral administration): fails to elicit a hypocalcemic response

Net (+) Charge ([1]; at physiological pH (pH 7.3)): +8
Compound: NCCCN1CCCN(CCCN)CCN(CCCN)CCCN(CCCN)CC1 [NPS 383]

Compound: NCCCNCCCCNCCCNCCCNCCCNC(=O)Cc1c[nH]c2ccccc12 [NPS 019]
EC50 (rMTC 6-23 cells; [6]): 5 µM
